According to PubChem BioAssay (NCI):
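Tested at 5 concentrations; 48 h exposure; 96-well plates; endpoints linearly interpolated, else capped at highest concentration. The concentration for full growth arrest is given as TGI.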

How the values were obtained:
Test in all cases: NCI-60 cell line screen, 48 h
[1] = test system: IGROV1 ovarian
[2] = test system: HCT-15 colon
[3] = test system: MCF7 breast
[4] = test system: NCI-H226 lung
[5] = test system: MDA-N
[6] = test system: MDA-MB-435
[7] = test system: A549 NSCLC
[8] = test system: EKVX NSCLC
[9] = test system: SK-MEL-5 melanoma
[10] = test system: UACC-257 melanoma
[11] = test system: OVCAR-3 ovarian
[12] = test system: HL-60(TB) leukemia
[13] = test system: M14 melanoma
[14] = test system: U251 CNS
[15] = test system: UACC-62 melanoma
[16] = test system: RXF 393 renal
[17] = test system: MOLT-4 leukemia
[18] = test system: UO-31 renal
[19] = test system: RPMI-8226 leukemia
[20] = test system: PC-3 prostate
[21] = test system: COLO 205 colon
[22] = test system: K-562 leukemia
[23] = test system: HCT-116 colon
[24] = test system: NCI-H23 lung
[25] = test system: SNB-75 CNS
[26] = test system: KM12 colon
[27] = test system: NCI-H460 lung
[28] = test system: BT-549 breast
[29] = test system: SK-OV-3 ovarian
[30] = test system: HS 578T breast
[31] = test system: OVCAR-4 ovarian
[32] = test system: NCI/ADR-RES ovarian
[33] = test system: LOX IMVI melanoma
[34] = test system: A498 renal
[35] = test system: HOP-62 NSCLC
[36] = test system: CAKI-1 renal
[37] = test system: OVCAR-8 ovarian
[38] = test system: SK-MEL-2 melanoma
[39] = test system: DU-145 prostate
[40] = test system: OVCAR-5 ovarian
[41] = test system: SNB-19 CNS
[42] = test system: TK-10 renal
[43] = test system: MALME-3M melanoma
[44] = test system: HT29 colon
[45] = test system: SW-620 colon
[46] = test system: CCRF-CEM leukemia
[47] = test system: HOP-92 NSCLC
[48] = test system: NCI-H522 lung
[49] = test system: SF-539 CNS
[50] = test system: SR leukemia
[51] = test system: SN12C renal
[52] = test system: 786-0 renal
[53] = test system: SF-268 CNS
[54] = test system: SF-295 CNS
[55] = test system: ACHN renal
[56] = test system: T-47D breast
[57] = test system: MDA-MB-231 breast
[58] = test system: SK-MEL-28 melanoma
[59] = test system: HCC-2998 colon

In the case of `CCOC(=O)CCC(C(=O)OCC)n1nc2ccc(Nc3c(C)[n+]([O-])c4cc(Cl)ccc4[n+]3[O-])cc2n1` (stereo unspecified), the TGI [1] is reported as > 100 µM, the TGI [2] is reported as > 100 µM and the TGI [3] is reported as > 100 µM. The TGI [4] was > 100 µM, the TGI [5] was > 100 µM and the TGI [6] was > 100 µM. For the same molecule, the TGI [7] was > 100 µM, the TGI [8] was > 100 µM and the TGI [9] was > 100 µM. The TGI [10] was > 100 µM, the TGI [11] was > 100 µM and the TGI [12] was > 100 µM. The TGI [13] was > 100 µM, the TGI [14] was > 100 µM and the TGI [15] was > 100 µM. For the same molecule, the TGI [16] was > 100 µM, the TGI [17] was > 100 µM and the TGI [18] was > 100 µM. For the same molecule, the TGI [19] was > 100 µM, the TGI [20] was > 100 µM and the TGI [21] was > 100 µM. The TGI [22] was > 100 µM, the TGI [23] was > 100 µM and the TGI [24] was > 100 µM. The TGI [25] was > 100 µM, the TGI [26] was > 100 µM and the TGI [27] was 67.4 µM. For the same molecule, the TGI [28] was > 100 µM, the TGI [29] was > 100 µM and the TGI [30] was > 100 µM. For the same molecule, the TGI [31] was > 100 µM, the TGI [32] was > 100 µM and the TGI [33] was > 100 µM. The TGI [34] was > 100 µM, the TGI [35] was > 100 µM and the TGI [36] was > 100 µM. The TGI [37] was > 100 µM, the TGI [38] was > 100 µM and the TGI [39] was > 100 µM. For the same molecule, the TGI [40] was > 100 µM, the TGI [41] was > 100 µM and the TGI [42] was > 100 µM. The TGI [43] was > 100 µM, the TGI [44] was > 100 µM and the TGI [45] was > 100 µM. For the same molecule, the TGI [46] was > 100 µM, the TGI [47] was > 100 µM and the TGI [48] was > 100 µM. The TGI [49] was > 100 µM, the TGI [50] was > 100 µM and the TGI [51] was > 100 µM. For the same molecule, the TGI [52] was > 100 µM, the TGI [53] was > 100 µM and the TGI [54] was > 100 µM. The TGI [55] was > 100 µM and the TGI [56] was > 100 µM.
With `CO/N=C1\CCC2(O)C3Cc4ccc(O)c5c4C2(CCN3CC2CC2)[C@H]1O5` (stereo partly specified) the TGI [1] was > 100 µM, the TGI [2] was > 100 µM and the TGI [3] was > 100 µM. The TGI [4] was > 100 µM, the TGI [5] was > 100 µM and the TGI [6] was > 100 µM. The TGI [7] was > 100 µM, the TGI [8] was > 100 µM and the TGI [9] was > 100 µM. The TGI [11] was > 100 µM, the TGI [12] was > 100 µM and the TGI [13] was > 100 µM. For the same molecule, the TGI [14] was > 100 µM, the TGI [15] was > 100 µM and the TGI [17] was > 100 µM. For the same molecule, the TGI [18] was > 100 µM, the TGI [19] was > 100 µM and the TGI [20] was > 100 µM. The TGI [21] was > 100 µM, the TGI [22] was > 100 µM and the TGI [23] was > 100 µM. For the same molecule, the TGI [24] was > 100 µM, the TGI [26] was > 100 µM and the TGI [28] was > 100 µM. For the same molecule, the TGI [29] was > 100 µM, the TGI [30] was > 100 µM and the TGI [57] was > 100 µM. The TGI [31] was > 100 µM, the TGI [32] was > 100 µM and the TGI [33] was > 100 µM. The TGI [34] was > 100 µM, the TGI [58] was > 100 µM and the TGI [35] was > 100 µM. For the same molecule, the TGI [36] was > 100 µM, the TGI [37] was > 100 µM and the TGI [38] was > 100 µM. For the same molecule, the TGI [39] was > 100 µM, the TGI [40] was > 100 µM and the TGI [41] was > 100 µM. For the same molecule, the TGI [42] was > 100 µM, the TGI [43] was > 100 µM and the TGI [44] was > 100 µM. The TGI [45] was > 100 µM, the TGI [46] was > 100 µM and the TGI [47] was > 100 µM. For the same molecule, the TGI [48] was > 100 µM, the TGI [49] was > 100 µM and the TGI [50] was > 100 µM. The TGI [51] was > 100 µM, the TGI [52] was > 100 µM and the TGI [53] was > 100 µM. The TGI [54] was > 100 µM, the TGI [55] was > 100 µM and the TGI [56] was > 100 µM.
Molecule `CCN1/C(=C/c2ccc3ccccc3[n+]2CC)C=Cc2ccccc21` has a TGI [1] of 16.4 µM, a TGI [2] of 34.1 µM and a TGI [3] of 13.1 µM. For the same molecule, the TGI [4] was 9.71 µM, the TGI [5] was 2.04 µM and the TGI [6] was 1.67 µM. The TGI [7] was 17.1 µM, the TGI [8] was 16.7 µM and the TGI [9] was 3.77 µM. The TGI [10] was 7.22 µM, the TGI [11] was 13.1 µM and the TGI [13] was 12.8 µM. It also gave a TGI [14] of 11.1 µM, a TGI [15] of 9.22 µM and a TGI [16] of 12.8 µM. The TGI [17] was > 33.9 µM, the TGI [18] was 8.45 µM and the TGI [19] was > 23.4 µM. The TGI [20] was 4.58 µM, the TGI [22] was > 100 µM and the TGI [23] was 11.7 µM. For the same molecule, the TGI [24] was 17.1 µM, the TGI [25] was 2.27 µM and the TGI [26] was 1.4 µM. For the same molecule, the TGI [27] was 4.95 µM, the TGI [28] was 24 µM and the TGI [30] was 12.5 µM. It also gave a TGI [57] of 8.12 µM, a TGI [59] of 13.4 µM and a TGI [31] of 19.8 µM. For the same molecule, the TGI [32] was 88.9 µM, the TGI [33] was 4.86 µM and the TGI [34] was 15 µM. It also gave a TGI [58] of 15.9 µM, a TGI [35] of 13.9 µM and a TGI [36] of 56.8 µM. For the same molecule, the TGI [37] was 12.4 µM, the TGI [38] was 3.9 µM and the TGI [39] was 15.7 µM. The TGI [40] was 24.4 µM, the TGI [41] was 27.8 µM and the TGI [42] was 26.4 µM. The TGI [43] was 6.89 µM, the TGI [44] was 11 µM and the TGI [45] was 14.5 µM. The TGI [46] was 6.81 µM, the TGI [47] was 6.93 µM and the TGI [48] was 4.64 µM. For the same molecule, the TGI [49] was 13.7 µM, the TGI [50] was > 100 µM and the TGI [51] was 12.8 µM. For the same molecule, the TGI [52] was 13.9 µM, the TGI [53] was 16.5 µM and the TGI [54] was 10.5 µM. For the same molecule, the TGI [55] was 31.5 µM and the TGI [56] was 6.31 µM.
With `CC(C)(C)NC(NC(C)(C)C)=C(C(Cl)=C(Cl)Cl)[N+](=O)[O-]` the TGI [1] was > 100 µM, the TGI [2] was > 100 µM and the TGI [3] was > 100 µM. The TGI [4] was > 100 µM, the TGI [5] was > 100 µM and the TGI [7] was > 100 µM. The TGI [8] was > 100 µM, the TGI [9] was > 100 µM and the TGI [10] was > 100 µM. For the same molecule, the TGI [11] was > 100 µM, the TGI [12] was > 100 µM and the TGI [13] was > 100 µM. For the same molecule, the TGI [14] was > 100 µM, the TGI [15] was > 100 µM and the TGI [16] was > 100 µM. The TGI [17] was > 100 µM, the TGI [18] was > 100 µM and the TGI [19] was > 100 µM. For the same molecule, the TGI [20] was > 100 µM, the TGI [21] was > 100 µM and the TGI [22] was > 100 µM. The TGI [23] was > 100 µM, the TGI [24] was > 100 µM and the TGI [25] was > 100 µM. For the same molecule, the TGI [26] was > 100 µM, the TGI [27] was > 100 µM and the TGI [28] was > 100 µM. The TGI [29] was > 100 µM, the TGI [30] was > 100 µM and the TGI [57] was > 100 µM. The TGI [59] was > 100 µM, the TGI [31] was > 100 µM and the TGI [32] was > 100 µM. For the same molecule, the TGI [33] was > 100 µM, the TGI [34] was > 100 µM and the TGI [58] was > 100 µM. The TGI [35] was > 100 µM, the TGI [36] was > 100 µM and the TGI [37] was > 100 µM. For the same molecule, the TGI [39] was > 100 µM, the TGI [40] was > 100 µM and the TGI [41] was > 100 µM. The TGI [42] was > 100 µM, the TGI [43] was > 100 µM and the TGI [44] was > 100 µM. The TGI [45] was > 100 µM, the TGI [46] was > 100 µM and the TGI [49] was > 100 µM. The TGI [50] was > 100 µM, the TGI [51] was > 100 µM and the TGI [52] was > 100 µM. The TGI [53] was > 100 µM, the TGI [54] was > 100 µM and the TGI [55] was > 100 µM. The TGI [56] was > 100 µM.
